Experimental data: patent publication US4791130A, “Mitomycin derivatives as antileukemia agents” (priority 1986, dated 1988)
≈ marks a conversion by molar mass, not a printed value. Like-named read-outs stand apart in the source and are kept apart here.

Assays:
in vivo [1] = conditions: mouse, ip, ddy mice, single abdominal administration, 14 days observation, Behrens-Korber's method
From the text: (§1) The test compound was abdominally administered once to ddy mice, each group consisting of 5 animals.

Sarcoma 180 solid tumour = format: in vivo, ddy mouse; conditions: ddy mice, LD50 abdominal, ED50 single tail vein dose, tumour volume 7 days after implantation
From the text: (§2) In this table, C.I. denotes chemotherapeutic index, calculated as (LD50)/(ED50), wherein LD50 denotes the value of acute toxity, and ED50 denotes the dose of a sample which is capable of reducing the volume of Sarcoma 180 solid tumour to 50% of the corresponding volume of the solid tumour of untreated group.
as §1
(§3) 5×10^6 cells of Sarcoma 180 solid tumour were abdominally implanted into a ddy mouse. After 7 days, the cells were collected from the acsites fluid. The cells were washed once with physiological saline under sterile conditions and suspended in physiological saline to obtain a cell suspension containing 5×10^7 cells/ml, of which 0.1 ml was implanted into a ddy mouse (body weight 20±2 g) under the skin of the right armpit. The test compound was dissolved in physiological saline or the same solution containing Tween 80. 24 hours after implantation of the tumour cells, 0.1-0.2 ml of the solution containing the test compound was administered to the vein at the tail of each animal of the test group consisting of 5 animals. 7 days after the implantation, the major axis (a) and minor axis (b) of the tumour were measured to calculate the volume of the tumour as "a"×"b^2 "/2. The antitumour effect was indicated by T/C which is the ratio of the tumour volume in the test animals to the corresponding volume of the control (untreated) animals.
(§4) T/C ratios and the dose were respectively plotted on the ordinate using an arithmetic scale and on the abscissa using a logarithmic scale, the relationship between the dosage and the T/C ratio being converted to a straight line by the least squares method. From the straight tropic line thus-obtained, the dose corresponding to a T/C=0.5 viz. ED50 was determined.

Hela S3 cultured cells = experiment: Effects upon Hela S3 cultured cells (cell count after 72 hours); format: cell-based; conditions: Homo sapiens
Method: Table 3 indicates the effects of typical Compounds (I) against Hela S3 culture cells In this Table, IC50 denotes the concentration of the test compound capable of reducing the number of the cells to 50% of the number of untreated cells.
The experiment was carried out in the following manner:
Cultured cells of Hela S3 were added to a MEM medium containing 10% (V/V) of bovine fetal serum and […] of glutamine to obtain a cell suspension of 3×10^4 cells/ml. The cell suspension was poured into each well (1 ml/well) of a multiplate having 24 wells for culturing at 37° C. in an incubator containing carbon dioxide (5%) and air (95%). After 24 hours, samples were dissolved or suspended in PBS, ethanol or dimethylsulfoxide were added to the medium at different concentrations,followed by culturing at 37° C. for 72 hours in the same incubator.
An aspirator was used to collect the medium from each well. The surface of each medium was washed by added PBS (1 ml) gently, and then PBS was sucked out. PBS containing trypsin (0.05%) and EDTA (0.02%) was poured into each well. After pipetting, the number of the cells in each suspension was counted by the use of a micro-cell counter (commercial product of Toa Iyo Denshi K.K., Japan). By reference to a curve showing the concentration vs. the number of the cells, IC50 (concentration of the sample capable of reducing the number of the cells to 50% on the basis of the number of control untreated cells) was measured.

in vivo [2] = conditions: mouse, ip
From the text: as §2, §3, §4
Sarcoma 180 solid tumour cells (5×10^6) were subcutaneously implanted into the skin under the right armpit of each mouse (body weight 20±2 g) of a group consisting of 5 male mice (ddy strain). 24 hours later, a test compound was intraperitoneally administered to each animal. 4 days later, blood (0.02 ml) was collected from the suborbital plexus vein of each tumour-carrying animal. The collected sample of blood was dispersed in 9.98 ml of Cell-kit Seven solution. One drop of saponin solution was added to the sample to dissolve erythrocytes and then a microcell counter was used to measure the number of leucocytes. On graph paper, the number of leucocytes was plotted on the ordinate using an arithmetic scale, and the dosage was plotted on the abscissa using a logarithmic scale to plot the relationship of the dosage to the number of peripheral leucocytes, from which the value of WBC4000, viz. a value capable of giving 4000 peripheral leucocytes (about half of the corresponding value in normal mice) per mm^3, was obtained.

| SMILES | LD50 at 336 h (in vivo [1]) | C.I. (chemotherapeutic index, LD50/ED50) (Sarcoma 180 solid tumour) | IC50 (Hela S3 cultured cells; HeLa S3, 72 h) | selectivity ratio (in vivo [2]) | IC50 (Hela S3 cultured cells; Hela S3 cells, 72 hours at 37° C., concentration reducing cell number to 50% of untreated, read-out: IC50) |
| --- | --- | --- | --- | --- | --- |
| CON=C1C(=O)C2=C(C(=O)C1C)N1C[C@@H]3N[C@@H]3[C@]1(OC)[C@@H]2COC(N)=O (stereo partly drawn) [Example 1, [1aS-(1aα,8β,8aα,8bα)]-8-{[(aminocarbonyl)oxy]methyl}-8a-methoxy-6-[(methoxy)imino]-5-methyl-1,1a,2,5,6,8,8a,8b-octahydro-azirino-[2',3':3,4]pyrrolo[1,2-a]indole-4,7-dione] | 37.5 mg/kg | 0.7 | 12 ng/mL (≈ 0.0329 µM) | 0.5 | – |
| CO[C@@]12[C@H](COC(N)=O)C3=C(C(=O)C(C)C(=NOCC(C)C)C3=O)N1C[C@@H]1N[C@@H]12 (stereo partly drawn) [Example 2, [1aS-(1aα, 8β, 8aα, 8bα)]-8-{[(aminocarbonyl)oxy]methyl}-6-[(isobutyloxy)imino]-8a-methoxy-5-methyl1,1a,2,5,6,8,8a,8b-octahydro-azirino[2',3':3,4]pyrrolo[1,2-a]indole-4,7-dione] | 18.8 mg/kg | 3.6 | 3 ng/mL (≈ 0.00738 µM) | 1.9 | – |
| CCC(C)ON=C1C(=O)C2=C(C(=O)C1C)N1C[C@@H]3N[C@@H]3[C@]1(OC)[C@@H]2COC(N)=O (stereo partly shown) [Example 3] | 18.8 mg/kg | 3.1 | 1 ng/mL (≈ 0.00246 µM) | 2.4 | – |
| CCCCON=C1C(=O)C2=C(C(=O)C1C)N1C[C@@H]3N[C@@H]3[C@]1(OC)[C@@H]2COC(N)=O (stereo partly shown) [Example 4] | 18.8 mg/kg | 2.7 | 6 ng/mL (≈ 0.0148 µM) | 0.9 | – |
| CO[C@@]12[C@H](COC(N)=O)C3=C(C(=O)C(C)C(=NOCC(C)C)C3=O)N1C[C@H]1[C@@H]2N1C (stereo partly drawn) [Example 5, [1aS-(1aα, 8β, 8aα, 8bα)]-8-{[(aminocarbonyl)oxy]methyl}-1,5-dimethyl-6-[(isobutyloxy)imino]8a-methoxy-1,1a,2,5,6,8,8a,8b-octahydro-azirino [2',3': 3,4]pyrrolo[1,2-a]indole-4,7-dione] | 60 mg/kg | 3.4 | – | 1.4 | – |
| CC(C)CON=C1C(=O)C2=C(C(=O)C1C)N1C[C@H]3[C@H](N3C)[C@]1(O)[C@H]2COC(N)=O (stereo partly shown) [Example 6] | – | – | 30 ng/mL (≈ 0.0738 µM) | – | – |
| CO[C@@]12[C@H](CO)C3=C(C(=O)C(C)C(=NOCC(C)C)C3=O)N1C[C@@H]1N[C@@H]12 (stereo partly drawn) [Example 7, [1aS-(1aα, 8β, 8aα, 8bα)]-8-hydroxymethyl-6-[(isobutyloxy)imino] -8a-methoxy-5-methyl-1,1a, 2,5,6,8,8a,8b-octahydro-azirino [2',3':3,4]pyrrolo[1,2-a] indole-4,7-dione] | – | – | 3 ng/mL (≈ 0.00826 µM) | – | – |
| CO[C@@]12[C@H](COC(N)=O)C3=C(C(=O)C(C)=C(N)C3=O)N1C[C@@H]1N[C@@H]12 [Mitomycin C, reference compound] | – | – | – | – | 4 ng/mL (≈ 0.012 µM) |
